Reference: US20090306083A1, “Use of Trifluoromethyl Substituted Benzamides in teh Treatment of Neurological Disorders” (Novartis AG, priority 2006, published 2009)

test system: not given; test: not given; details: not given

Row | Structure (SMILES) | melting point [°C]
1 | Cc1ccc(NC(=O)c2cccc(C(F)(F)F)c2)cc1-c1ccc2ccncc2c1 [Compound 1, N-(3-Isoquinolin-7-yl-4-methyl-phenyl)-3-trifluoromethyl-benzamide] | 148 to 152
2 | Cc1ccc(C(=O)Nc2cccc(C(F)(F)F)c2)cc1-c1ccc2cnncc2c1 [Compound 8, 4-Methyl-3-phthalazin-6-yl-N-(3-trifluoromethyl-phenyl)-benzamide] | 270 to 272
3 | Cc1ccc(NC(=O)c2cccc(C(F)(F)F)c2)cc1-c1ccc2ncsc2c1 [Compound 5, N-(3-Benzothiazol-6-yl-4-methyl-phenyl)-3-trifluoromethyl-benzamide] | 94 to 96
4 | Cc1ccc(C(=O)Nc2cccc(C(F)(F)F)c2)cc1-c1ccc2ncsc2c1 [Compound 6, 3-Benzothiazol-6-yl-4-methyl-N-(3-trifluoromethyl-phenyl)-benzamide] | 102 to 104
5 | Cc1ccc(NC(=O)c2cccc(C(F)(F)F)c2)cc1-c1ccc2cnncc2c1 [Compound 7, N-(4-Methyl-3-phthalazin-6-yl-phenyl)-3-trifluoromethyl-benzamide] | 205 to 206
6 | Cc1ccc(C(=O)Nc2cccc(C(F)(F)F)c2)cc1-c1ccc2scnc2c1 [Compound 10, 3-Benzothiazol-5-yl-4-methyl-N-(3-trifluoromethylphenyl)benzamide] | 200 to 202
7 | Cc1ccc(NC(=O)c2cccc(C(F)(F)F)c2)cc1-c1ccc2scnc2c1 [Compound 9, N-(3-Benzothiazol-5-yl-4-methyl-phenyl)-3-trifluoromethyl-benzamide] | 90 to 93

test system: astrocytes; test: Astrocyte scratch wound assay (in vitro assay for astrogliosis); type: cell-based, C57BL/6 mice; details: cytokines (TGF-α, LIF, and IFN) plus 10 nM compound; serum free=1
Method: Assay Astrocytes are prepared from the cerebral cortex of neonatal C57BL/6 mice(P1-P2). Cells are maintained in Dulbecco's modified Eagle's medium with 10% FBS. 4-7 weeks old astrocytes are plated to confluence in 2 well chamber slides coated with poly-D-lysine for the scratch wound assay and serum starved. 48 hrs after serum starvation, the monolayer of astrocytes is scratched with sterile 200 μl tips and washed twice with PBS to get rid of cell debris. Conditioned medium (±cytokines) is added to the wounded astrocytes. The microscopic images of the scratch is captured at a magnification of 10× right after scratch and considered as time point 0.24 hrs, 48 hrs or 72 hrs after scratch, the same region of scratch is imaged and fixed with methanol containing 1 μg/ml of DAPI to monitor migration and proliferation of astrocytes.

Row | Structure (SMILES) | astrocyte migration induced by cytokines (relative area of cell migration compared to control)
8 | Cc1ccc(C(=O)Nc2cccc(C(F)(F)F)c2)cc1-c1ccc2ccncc2c1 [Compound 3, 3-Isoquinolin-7-yl-4-methyl-N-(3-trifluoromethyl-phenyl)-benzamide] | block astrocyte migration induced by cytokines

biological target: T1, EphA4 receptor (Mus musculus, UniProt Q03137); test: Proof of mechanism: EphA4 phosphorylation in vivo in mouse brain (EphA4 immunoprecipitation, phospho-tyrosine Western blot); parameters: species or system NMRI mice; details: i.v. dose 10 mg/kg; sacrificed 25 minutes or 1 hour after dosing; brain homogenate
T1 construct: The brains were removed and one half of each brain was weighed and homogenized; from tissue; host or cells: mouse brain (NMRI mice), homogenate
Method: Male NMRI mice were injected with relevant compounds at a dose of 10 mg/kg body weight and were sacrificed either 25 minutes or 1 hour following the dosing (0.25 h or 1 h shown in FIG. 4). The brains were removed and one half of each brain was weighed and homogenized in appropriate volume of lysis buffer for 30 seconds (10 seconds pulse and 10 seconds off—3 times). The homogenate was spun at 12,000 g for 30 minutes. Protein amounts were estimated for supernatants (using BCA) and equal amounts of protein for each condition were subjected to EphA4 immunoprecipitation followed by a phospho-tyrosine western blot. Four control animals were used and three experimental animals per time point were used for each of the compounds tested.

T1 sequence (Q03137 20-986): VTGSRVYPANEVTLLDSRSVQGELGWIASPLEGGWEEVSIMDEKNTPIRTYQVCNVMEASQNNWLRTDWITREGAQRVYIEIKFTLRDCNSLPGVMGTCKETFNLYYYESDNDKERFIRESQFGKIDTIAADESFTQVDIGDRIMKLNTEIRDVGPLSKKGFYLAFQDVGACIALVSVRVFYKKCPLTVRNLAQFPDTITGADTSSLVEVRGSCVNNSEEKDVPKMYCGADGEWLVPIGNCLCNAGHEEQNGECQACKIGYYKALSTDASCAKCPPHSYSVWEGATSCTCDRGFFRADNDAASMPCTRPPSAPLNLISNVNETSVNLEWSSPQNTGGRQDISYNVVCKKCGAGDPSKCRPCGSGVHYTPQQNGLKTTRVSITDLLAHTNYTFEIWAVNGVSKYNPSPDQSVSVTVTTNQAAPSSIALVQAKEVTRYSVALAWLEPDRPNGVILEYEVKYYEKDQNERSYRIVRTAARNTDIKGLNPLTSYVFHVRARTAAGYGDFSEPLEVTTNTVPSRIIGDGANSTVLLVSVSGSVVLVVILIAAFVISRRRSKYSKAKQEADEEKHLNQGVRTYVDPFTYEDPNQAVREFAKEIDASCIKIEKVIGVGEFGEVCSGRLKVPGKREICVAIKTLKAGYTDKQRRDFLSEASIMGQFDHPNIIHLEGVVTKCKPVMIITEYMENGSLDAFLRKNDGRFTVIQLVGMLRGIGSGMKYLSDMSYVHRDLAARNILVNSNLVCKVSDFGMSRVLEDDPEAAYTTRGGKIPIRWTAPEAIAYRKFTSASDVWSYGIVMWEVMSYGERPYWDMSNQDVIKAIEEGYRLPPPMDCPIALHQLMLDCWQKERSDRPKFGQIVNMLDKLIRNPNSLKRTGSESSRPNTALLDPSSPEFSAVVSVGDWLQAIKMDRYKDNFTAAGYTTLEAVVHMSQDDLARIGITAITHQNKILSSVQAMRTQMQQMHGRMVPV

Row | Structure (SMILES) | EphA4 phosphorylation in vivo in mouse brain
9 | Cc1ccc(C(=O)Nc2cccc(C(F)(F)F)c2)cc1-c1ccc2ccncc2c1 [Compound 3, 3-Isoquinolin-7-yl-4-methyl-N-(3-trifluoromethyl-phenyl)-benzamide] | block EphA4 phosphorylation in vivo in mouse brain
